Measured values from patent US20210198277A1, “AMINE-SUBSTITUTED ARYL OR HETEROARYL COMPOUNDS” (Epizyme, Inc., priority 2016, published 2021).

Molecular target: T1, EHMT2 (Homo sapiens, UniProt Q96KQ7)
T1 construct: host or cells: MDA-MB-231
T1 sequence (Q96KQ7 1-1210): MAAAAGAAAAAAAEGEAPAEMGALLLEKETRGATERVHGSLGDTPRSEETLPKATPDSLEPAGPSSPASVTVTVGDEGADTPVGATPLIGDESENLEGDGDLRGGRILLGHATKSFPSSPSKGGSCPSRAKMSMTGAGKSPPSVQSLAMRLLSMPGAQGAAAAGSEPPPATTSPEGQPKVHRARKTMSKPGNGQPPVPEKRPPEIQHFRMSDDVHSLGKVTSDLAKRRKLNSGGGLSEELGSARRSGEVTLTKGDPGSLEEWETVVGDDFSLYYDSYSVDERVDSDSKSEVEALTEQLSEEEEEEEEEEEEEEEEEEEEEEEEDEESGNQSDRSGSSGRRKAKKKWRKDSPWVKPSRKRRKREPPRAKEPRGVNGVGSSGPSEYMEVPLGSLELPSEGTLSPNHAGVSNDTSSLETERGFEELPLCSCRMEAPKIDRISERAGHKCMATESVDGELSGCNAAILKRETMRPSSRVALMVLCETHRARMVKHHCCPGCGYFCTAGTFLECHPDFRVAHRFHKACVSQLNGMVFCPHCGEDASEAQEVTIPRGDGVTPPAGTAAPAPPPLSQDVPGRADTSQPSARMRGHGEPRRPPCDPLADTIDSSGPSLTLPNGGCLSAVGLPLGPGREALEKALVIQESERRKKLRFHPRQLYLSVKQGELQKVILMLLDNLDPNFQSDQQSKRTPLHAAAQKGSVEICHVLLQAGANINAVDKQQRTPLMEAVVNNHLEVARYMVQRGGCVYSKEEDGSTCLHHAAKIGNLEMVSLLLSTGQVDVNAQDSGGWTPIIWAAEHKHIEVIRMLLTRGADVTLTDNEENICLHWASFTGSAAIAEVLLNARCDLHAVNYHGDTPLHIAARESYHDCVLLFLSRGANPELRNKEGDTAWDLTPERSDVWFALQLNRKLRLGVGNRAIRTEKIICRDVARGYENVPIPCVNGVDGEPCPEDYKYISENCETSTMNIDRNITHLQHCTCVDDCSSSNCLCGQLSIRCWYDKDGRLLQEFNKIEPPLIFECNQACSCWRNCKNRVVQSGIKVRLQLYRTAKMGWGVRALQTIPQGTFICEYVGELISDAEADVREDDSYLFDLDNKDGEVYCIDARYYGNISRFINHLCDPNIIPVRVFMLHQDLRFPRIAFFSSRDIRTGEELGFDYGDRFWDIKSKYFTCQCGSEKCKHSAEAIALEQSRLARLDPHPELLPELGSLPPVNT
Assay: MDA-MB-231 H3K9me2 in-cell Western assay (EHMT2 ICW)
Assay type: cell-based
Conditions: Table III; MDA-MB-231 H3K9me2 in-cell Western; read-out: EHMT2 ICW (IC50 μM)
In short: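 For 48 h at 37 °C, breast cancer MDA-MB-231 cells were incubated with compound, then fixed and immunostained for H3K9me2, with DRAQ5 used for normalisation. Each well's signal ratio yielded percent inhibition, and IC50 values were derived by fitting a four-parameter curve.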

| SMILES | IC50 [µM] |
| --- | --- |
| CNc1ccnc(Nc2cc(OCCCN3CCCC3)c(OC)cn2)c1 [Compound 305, N^2-(5-methoxy-4-(3-(pyrrolidin-1-yl)propoxy)pyridin-2-yl)-N^4-methylpyridine-2,4-diamine] | 0.1 to 1 |
| CNc1nc(C)cc(Nc2cc(OCCCN3CCCC3)c(OC)cn2)n1 [Compound 306, N^4-(5-methoxy-4-(3-(pyrrolidin-1-yl)propoxy)pyridin-2-yl)-N^2,6-dimethylpyrimidine-2,4-diamine] | > 10 |
| CNc1cc(C)nc(Nc2cc(OCCCN3CCCC3)c(OC)cn2)c1 [Compound 307, N^2-(5-methoxy-4-(3-(pyrrolidin-1-yl)propoxy)pyridin-2-yl)-N^4,6-dimethylpyridine-2,4-diamine] | 0.1 to 1 |
| CNc1cc(Nc2cc(OCCCN3CCCC3)c(OC)cn2)cc(C)n1 [Compound 308, N^4-(5-methoxy-4-(3-(pyrrolidin-1-yl)propoxy)pyridin-2-yl)-N^2,6-dimethylpyridine-2,4-diamine] | 1 to 10 |
| CNc1cc(Nc2cc(OCCCN3CCCC3)c(OC)cn2)nc(C)c1F [Compound 309, 5-fluoro-N^2-(5-methoxy-4-(3-(pyrrolidin-1-yl)propoxy)pyridin-2-yl)-N^4,6-dimethylpyridine-2,4-diamine] | 0.1 to 1 |
| COc1cnc(Nc2nc(C)cc3[nH]ccc23)cc1OCCCN1CCCC1 [Compound 310] | > 10 |
| CNc1cc(C)nc(Nc2ccc(OC)c(OCCOC)c2)n1 [Compound 311, N^2-(4-methoxy-3-(2-methoxyethoxy)phenyl)-N^4,6-dimethylpyrimidine-2,4-diamine] | > 10 |
| CNc1cc(C)nc(Nc2ccc(OC)c(OCCCOC)c2)n1 [Compound 312, N^2-(4-methoxy-3-(3-methoxypropoxy)phenyl)-N^4,6-dimethylpyrimidine-2,4-diamine] | > 10 |
| CNc1cc(C)nc(Nc2ccc(C3CC3)c(OCCCN3CCCC3)c2)n1 [Compound 313, N^2-(4-cyclopropyl-3-(3-(pyrrolidin-1-yl)propoxy)phenyl)-N^4,6-dimethylpyrimidine-2,4-diamine] | 1 to 10 |
| CNc1ccnc(Nc2ccc(C3CC3)c(OCCCN3CCCC3)c2)n1 [Compound 314, N^2-(4-cyclopropyl-3-(3-(pyrrolidin-1-yl)propoxy)phenyl)-N^4-methylpyrimidine-2,4-diamine] | 1 to 10 |
| CNc1cc(C)nc(Nc2ccc(OC)c(OC[C@H]3C[C@@H](N(C)C)C3)c2)n1 [Compound 316] | 1 to 10 |
| CNc1cc(C)nc(Nc2ccc(OC)c(O[C@H]3C[C@@H](CN(C)C)C3)c2)n1 [Compound 318, N^2-(3-((1s,3s)-3-((dimethylamino)methyl)cyclobutoxy)-4-methoxyphenyl)-N^4,6-dimethylpyrimidine-2,4-diamine] | > 10 |
| CCc1nc(Nc2ccc(OC)c(OCCCN3CCCC3)c2)nc(NC)c1F [Compound 319, 6-ethyl-5-fluoro-N^2-(4-methoxy-3-(3-(pyrrolidin-1-yl)propoxy)phenyl)-N^4-methylpyrimidine-2,4-diamine] | 1 to 10 |
| CNc1cc(C2CC2)nc(Nc2ccc(OC)c(OCCCN3CCCC3)c2)n1 [Compound 320, 6-cyclopropyl-N^2-(4-methoxy-3-(3-(pyrrolidin-1-yl)propoxy)phenyl)-N^4-methylpyrimidine-2,4-diamine] | 0.1 to 1 |
| COc1cnc(Nc2cnc3ccccn23)cc1OCCCN1CCCC1 [Compound 321, N-(5-methoxy-4-(3-(pyrrolidin-1-yl)propoxy)pyridin-2-yl)imidazo[1,2-a]pyridin-3-amine] | > 10 |
| CNc1ccnc(Nc2ccc(OC)c(OCCCN3CC(C)C3)c2)n1 [Compound 423, N^2-(4-methoxy-3-(3-(3-methylazetidin-1-yl)propoxy)phenyl)-N^4-methylpyrimidine-2,4-diamine] | 1 to 10 |
| CNc1ccnc(Nc2ccc(OC)c(OCCCN(C)CC3CC3)c2)n1 [Compound 424, N^2-(3-(3-((cyclopropylmethyl)(methyl)amino)propoxy)-4-methoxyphenyl)-N^4-methylpyrimidine-2,4-diamine] | 1 to 10 |
| CNc1ccnc(Nc2ccc(OC)c(OCCCN3CC(OC)C3)c2)n1 [Compound 425, N^2-(4-methoxy-3-(3-(3-methoxyazetidin-1-yl)propoxy)phenyl)-N^4-methylpyrimidine-2,4-diamine] | 1 to 10 |

| SMILES | IC50 [µM] |
| --- | --- |
| CNc1ccnc(Nc2ccc(OC)c(OCc3cc(C4CC4)on3)c2)n1 [Compound 426, N^2-(3-((5-cyclopropylisoxazol-3-yl)methoxy)-4-methoxyphenyl)-N^4-methylpyrimidine-2,4-diamine] | > 10 |
| CNc1ccnc(N[C@@H]2CCC[C@H](OCCCN3CCCC3)C2)n1 [Compound 427] | > 10 |
| CNc1cc(CC(F)(F)F)nc(Nc2ccc(OC)c(OCCCN3CCCC3)c2)n1 [Compound 428, N^2-(4-methoxy-3-(3-(pyrrolidin-1-yl)propoxy)phenyl)-N^4-methyl-6-(2,2,2-trifluoroethyl)pyrimidine-2,4-diamine] | 1 to 10 |
| CNc1ccnc(Nc2ccc(OC)c(OCCCN3CCC3C)c2)n1 (centres unmarked) [Compound 429, N^2-(4-methoxy-3-(3-(2-methylazetidin-1-yl)propoxy)phenyl)-N^4-methylpyrimidine-2,4-diamine] | 1 to 10 |
| CCOc1ccc(Nc2nccc(NC)n2)cc1OCCCN1CCCC1 [Compound 430, N^2-(4-ethoxy-3-(3-(pyrrolidin-1-yl)propoxy)phenyl)-N^4-methylpyrimidine-2,4-diamine] | > 10 |
| CCOc1ccc(Nc2nccc(NC)n2)cc1OCC1CCN(C)C1 (centres unmarked) [Compound 431] | > 10 |
| CCOc1ccc(Nc2nc(C)cc(NC)n2)cc1OCCCN1CCCC1 [Compound 432, N^2-(4-ethoxy-3-(3-(pyrrolidin-1-yl)propoxy)phenyl)-N^4,6-dimethylpyrimidine-2,4-diamine] | > 10 |
| CNc1ccnc(Nc2ccc(OC)c(OCc3noc(C4CC4)n3)c2)n1 [Compound 433, N^2-(3-((5-cyclopropyl-1,2,4-oxadiazol-3-yl)methoxy)-4-methoxyphenyl)-N^4-methylpyrimidine-2,4-diamine] | > 10 |
| CNc1ccnc(Nc2ccc(OC)c(OCc3cn(C4CC4)nn3)c2)n1 [Compound 434, N^2-(3-((1-cyclopropyl-1H-1,2,3-triazol-4-yl)methoxy)-4-methoxyphenyl)-N^4-methylpyrimidine-2,4-diamine] | > 10 |
| CNc1cc(C)nc(Nc2ccc(OC)c(OCC3CCN(C)CC3)c2)n1 [Compound 435, N^2-(4-methoxy-3-((1-methylpiperidin-4-yl)methoxy)phenyl)-N^4,6-dimethylpyrimidine-2,4-diamine] | 1 to 10 |
| CNc1cc(C)nc(Nc2ccc(OC)c(OCC3CCN(CC4CC4)CC3)c2)n1 [Compound 436, N^2-(3-((1-(cyclopropylmethyl)piperidin-4-yl)methoxy)-4-methoxyphenyl)-N^4,6-dimethylpyrimidine-2,4-diamine] | > 10 |
| CNc1cc(C)nc(Nc2ccc(OC)c(OCC3CNC3)c2)n1 [Compound 437, N^2-(3-(azetidin-3-ylmethoxy)-4-methoxyphenyl)-N^4,6-dimethylpyrimidine-2,4-diamine] | 1 to 10 |
| CNc1ccnc(Nc2ccc(OC)c(OCCOC3CCCC3)c2)n1 [Compound 440, N^2-(3-(2-(cyclopentyloxy)ethoxy)-4-methoxyphenyl)-N^4-methylpyrimidine-2,4-diamine] | > 10 |
| CNc1cc(COC)nc(Nc2ccc(OC)c(OCCCN3CCCC3)c2)n1 [Compound 441, N^2-(4-methoxy-3-(3-(pyrrolidin-1-yl)propoxy)phenyl)-6-(methoxymethyl)-N^4-methylpyrimidine-2,4-diamine] | 1 to 10 |
| CNc1cc(C)nc(Nc2ccc(OC)c(OCC3CN(C)C3)c2)n1 [Compound 442, N^2-(4-methoxy-3-((1-methylazetidin-3-yl)methoxy)phenyl)-N^4,6-dimethylpyrimidine-2,4-diamine] | 0.1 to 1 |
| CNc1cc(C)nc(Nc2ccc(OC)c(OC3CCN(CC4CC4)CC3)c2)n1 [Compound 443] | > 10 |
| CCN1CC(COc2cc(Nc3nc(C)cc(NC)n3)ccc2OC)C1 [Compound 444] | 0.1 to 1 |
